How the values were obtained:
Assay in all cases: relative viability (nuclei count vs DMSO), 5 days (fraction); higher = more cells survive
Selisistat + AZD7762 = compound: C1CC(C2=C(C1)C3=C(N2)C=CC(=C3)Cl)C(=O)N [Selisistat] + NC(=O)Nc1cc(-c2cccc(F)c2)sc1C(=O)N[C@H]1CCCNC1 [AZD7762] (partner 0.2 µM)
In short: (§1)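 After 5 days of treatment, lung cancer cells in 1536-well plates were fixed and stained in a single step (final 0.05% Triton X-100, 1% formaldehyde, 1 ug/ml Hoechst) and their nuclei counted on 4× images. Treatment had been applied by pin tool the day after seeding as one drug alone or as a fixed anchor-drug dose with five library-drug doses (not always all listed) in √10 steps. Relative viability is the nuclei count of treated wells divided by that of vehicle wells, and values are medians of duplicate plates.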

Serdemetan + Phenformin = compound: c1ccc2c(CCNc3ccc(Nc4ccncc4)cc3)c[nH]c2c1 [Serdemetan] + N=C(N)NC(=N)NCCc1ccccc1 [Phenformin] (partner 250 µM)
In short: as §1

Selisistat + Tozasertib = compound: C1CC(C2=C(C1)C3=C(N2)C=CC(=C3)Cl)C(=O)N [Selisistat] + Cc1cc(Nc2cc(N3CCN(C)CC3)nc(Sc3ccc(NC(=O)C4CC4)cc3)n2)n[nH]1 [Tozasertib] (partner 0.1 µM)
In short: as §1

Selisistat + Pemetrexed = compound: C1CC(C2=C(C1)C3=C(N2)C=CC(=C3)Cl)C(=O)N [Selisistat] + Nc1nc2[nH]cc(CCc3ccc(C(=O)N[C@@H](CCC(=O)O)C(=O)O)cc3)c2c(=O)[nH]1 [Pemetrexed] (partner 0.2 µM)
In short: as §1

Cell Line	relative viability (Selisistat + AZD7762; first compound 0.4 µM)	relative viability (Selisistat + AZD7762; first compound 1.265 µM)	relative viability (Selisistat + AZD7762; first compound 4 µM)	relative viability (Selisistat + AZD7762; first compound 12.65 µM)	relative viability (Selisistat + AZD7762; first compound 40 µM)	relative viability (Serdemetan + Phenformin; first compound 0.04 µM)	relative viability (Serdemetan + Phenformin; first compound 0.1265 µM)	relative viability (Serdemetan + Phenformin; first compound 0.4 µM)	relative viability (Serdemetan + Phenformin; first compound 1.265 µM)	relative viability (Serdemetan + Phenformin; first compound 4 µM)	relative viability (Selisistat + Tozasertib; first compound 0.4 µM)	relative viability (Selisistat + Tozasertib; first compound 1.265 µM)	relative viability (Selisistat + Tozasertib; first compound 4 µM)	relative viability (Selisistat + Tozasertib; first compound 12.65 µM)	relative viability (Selisistat + Tozasertib; first compound 40 µM)	relative viability (Selisistat + Pemetrexed; first compound 0.4 µM)	relative viability (Selisistat + Pemetrexed; first compound 1.265 µM)	relative viability (Selisistat + Pemetrexed; first compound 4 µM)	relative viability (Selisistat + Pemetrexed; first compound 12.65 µM)	relative viability (Selisistat + Pemetrexed; first compound 40 µM)
LU99A	0.372	0.256	0.392	0.436	0.338	0.887	0.891	0.763	0.417	0.354	0.298	0.249	0.319	0.313	0.281	0.169	0.176	0.21	0.184	0.163
LXF-289	1.12	1.14	0.936	1.03	1.1	0.483	0.522	0.5	0.457	0.517	0.18	0.162	0.2	0.179	0.237	0.925	1.04	0.83	0.841	0.959
NCI-H23	0.297	0.193		0.31	0.169	0.855	0.752	0.887	0.56	0.746	0.377	0.384	0.319	0.33	0.295	0.649	0.742		0.619	0.595
NCI-H322M	0.579	0.657		0.572	0.675	0.667	0.788	0.774	0.718	0.706	0.552	0.475	0.455	0.469	0.495	0.558	0.633		0.515	0.618
NCI-H358	0.532	0.589		0.518	0.639	0.302	0.324	0.273	0.286	0.308	0.0984	0.1	0.102	0.092	0.0962	0.182	0.221	0.158	0.177	0.19
NCI-H441	1.19	1.06	1.29	0.969	1.32	0.793	0.917	0.791	0.709	0.517	0.688	0.607	0.65	0.597	0.59	0.31	0.247	0.293	0.271	0.279
NCI-H460	0.617	0.488		0.571	0.697	0.47	0.505	0.446	0.145	0.09	0.515	0.366	0.289	0.28	0.441	0.0578	0.0622	0.0632	0.0572	0.0629
NCI-H522	0.63	0.672	0.622	0.9	1.01	0.669	0.669	0.67		0.679	0.569	0.593	0.509	0.608	0.52	1.03	0.646	0.781	0.94	1.1
NCI-H596	1.14	1.01	0.887	1.05	1.06	0.812	0.692	0.735	0.63	0.438	0.848	0.753	0.898	0.835	0.914	0.514	0.546	0.485	0.475	0.478
NCI-H647	0.465	0.433	0.345	0.432	0.553	0.583	0.669	0.511	0.288	0.335	0.227	0.322	0.44	0.29	0.343	0.165	0.203	0.193	0.174	0.178
NCI-H650	1.15	0.988	1	0.867	1.13	0.417	0.44	0.506	0.403	0.481	0.783	0.674	0.717	0.622	0.66	0.961	0.907	1.06	0.921	1.18
NCI-H838	0.933	0.91	0.958	0.971	1.03	0.564	0.551	0.544	0.427	0.641	0.238	0.278	0.245	0.26	0.249	0.243	0.243	0.222	0.228	0.226
NCI-H1355	0.774	0.753	0.717	0.819	0.814	0.447	0.444	0.466	0.332	0.432	0.599	0.648	0.519	0.497	0.589	1.12	1.08	1	1.08	1.11
NCI-H1395	0.377	0.393		0.394	0.4	0.448	0.448	0.471	0.388	0.332	0.705	0.698	0.81	0.8	0.686	0.97	0.968		0.639	0.908
NCI-H1437	1.17	1.12	0.918	0.99	1.01	0.314	0.32	0.315	0.298	0.37	0.426	0.398	0.339	0.369	0.369	0.321	0.328	0.321	0.28	0.299
NCI-H1651	0.426	0.491	0.462	0.521	0.523	0.283	0.319	0.224	0.205	0.213	0.7	0.735	0.599	0.618	0.584	0.64	0.673	0.51	0.519	0.497

Source: the supplement of paper PMC10307832
